Measured values as given in publication PMC5362899, “Structural insights into the nucleotide base specificity of P2X receptors” (Scientific Reports, 2017).

Molecular target: T1, rat P2X4 rT186A mutant (Rattus norvegicus, UniProt P51577, T186A)
T1 construct: rat P2X4 (NP_113782.1; WT and mutants) were transcribed from pGEMHE plasmids; expressed in transfected cells; host or cells: Xenopus laevis oocytes injected with cRNA from pGEMHE
T1 sequence (P51577 1-388 T186A): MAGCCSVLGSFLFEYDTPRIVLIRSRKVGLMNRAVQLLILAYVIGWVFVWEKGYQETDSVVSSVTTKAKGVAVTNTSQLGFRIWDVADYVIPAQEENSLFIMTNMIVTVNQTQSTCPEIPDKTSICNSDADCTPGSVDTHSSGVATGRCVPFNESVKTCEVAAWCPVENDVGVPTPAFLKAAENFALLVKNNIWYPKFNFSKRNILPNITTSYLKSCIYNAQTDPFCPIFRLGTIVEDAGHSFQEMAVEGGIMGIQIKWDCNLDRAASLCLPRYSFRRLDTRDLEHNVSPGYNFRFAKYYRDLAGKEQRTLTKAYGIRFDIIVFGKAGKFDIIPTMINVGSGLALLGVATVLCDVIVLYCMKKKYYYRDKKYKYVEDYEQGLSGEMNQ
Test: Two-Electrode Voltage Clamp recording, rat P2X4 T186A mutant in Xenopus oocytes
Assay type: cell-based
Details: 3 mM ATP, 3 mM CTP (Fig. S3)
From the text: To further investigate the functional roles of the residues involved in the base recognition, T189 and R143, we performed an electrophysiological analysis with the rat P2X4, since its electrophysiological properties have been well established. We first assessed the functional role of T189 in zfP2X4 and introduced mutations at the equivalent residue of the rat P2X4 to create three mutants (^rT186A, ^rT186V and ^rT186S; the superscript “r” means rat P2X4). […] Therefore, we examined the ^rWT and the ^rT186S mutant.
The cRNAs encoding zebrafish P2X4 (NP_705939; WT) and rat P2X4 (NP_113782.1; WT and mutants) were transcribed from pGEMHE plasmids, using a mMessage mMachine® T7 ULTRA kit (Ambion, Huntingdon, Cambridgeshire, UK). Xenopus laevis oocytes were prepared, and RNA (100 ng for zebrafish P2X4, and 20 ng for rat P2X4) was injected into the oocytes. The oocytes were incubated at 18 °C in Barth’s solution, containing 88 mM NaCl, 1 mM KCl, 2.4 mM NaHCO3, 10 mM HEPES, 0.33 mM Ca(NO3)2, 0.41 mM CaCl2, and 0.82 mM MgSO4, pH 7.4, supplemented with 50 μg/ml gentamicin, and were used for recording after 2–3 days. […] Oocytes were held at −70 mV with a bath-clamp amplifier (OC-725C, Warner Co., USA), and macroscopic currents were recorded and analyzed using the pClamp 10 software (Molecular Devices, USA)[33][34]. We measured n = 4 for zebrafish P2X4 data and n = 7–9 for rat P2X4 data. […]

SMILES | nucleotide-evoked currents
Nc1ncnc2c1ncn2[C@@H]1O[C@H](COP(=O)(O)OP(=O)(O)OP(=O)(O)O)[C@@H](O)[C@H]1O [ATP, Adenosine 5-triphosphate] | no ATP- and CTP-evoked currents were detected
Nc1ccn([C@@H]2O[C@H](COP(=O)(O)OP(=O)(O)OP(=O)(O)O)[C@@H](O)[C@H]2O)c(=O)n1 [CTP] | no ATP- and CTP-evoked currents were detected
